Measured values from PubChem BioAssay AID1013 (Columbia University Molecular Screening Center, 2008).
The source made the active and inactive calls. How the calls were made is not given here.

Assay: inhibitors of TNFa-induced VCAM1 expression, confirmation, imaging, TNFa stimulus, retest and dose response (AID 1013);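 on cell count: compound on cells 1 h before TNFa then 24 h more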
Details: TNFa-stimulated cells, VCAM1 expression imaging; at 2 µM; stronger effect = higher value

Row | SMILES | inhibition
1 | CCN1CCN(Cc2c(C)[nH]c3ccc(C(=O)OC)cc3c2=O)CC1 | 8.5% (inactive)
2 | CCOC(=O)c1oc2ccccc2c1NC(=O)Cc1cccs1 | -16.8% (inactive)
3 | CCC1=NC(c2ccccc2Cl)N(O)C1(C)C (stereo not drawn) | 5.5% (inactive)
4 | O=C(c1cc(-c2ccncc2)nc2ccc(Br)cc12)N1CCN(c2ccccn2)CC1 | 1.3% (inactive)
5 | Clc1ccc(C2=Nn3c(nnc3-c3cccnc3)SC2)s1 | 13% (inactive)
6 | CCCCN(C(=O)NC(=O)Nc1cccc(C)c1C)S(C)(=O)=O | 9.3% (inactive)
7 | O=C(Nc1ccccc1)/C(=C\c1ccc2c(c1)OCO2)NC(=O)c1ccco1 | -3% (inactive)
8 | O=c1c(-c2ccc(Br)cc2)coc2c(CN3CCOCC3)c(O)ccc12 | -12.4% (inactive)
9 | COc1cc(CC(=O)Nc2ncc(C)s2)cc(OC)c1OC | -6.6% (inactive)
10 | O=C(CS(=O)(=O)c1cn(Cc2cccc(F)c2)c2ccccc12)N1CCCCC1 | -4.4% (inactive)
11 | N#Cc1cc2c(nc1SCC(=O)N1CCCCC1)CCCC2 | -5.8% (inactive)
12 | O=C(O)C1CC=CCC1C(=O)N1CCCC1 (stereo not drawn) | -1.4% (inactive)
13 | CC(C)(C)NC(=O)CSc1nsc(SCC(=O)NC(C)(C)C)c1C#N | 1.8% (inactive)
14 | CCCC(C(=O)NC1CCCC1)N(CCCN1CCOCC1)C(=O)c1snc(C(N)=O)c1N (stereo not drawn) | 4.4% (inactive)
15 | O=C(NCCO)C(c1ccccc1)c1ccccc1 | -14.4% (inactive)
16 | Cn1cc([N+](=O)[O-])c(C(=O)Nc2ccc3c(c2)OCCO3)n1 | 10.7% (inactive)
17 | CCCc1nnc(SCC(=O)O)n1/N=C/c1ccc2c(c1)OCO2 | -2% (inactive)
18 | COc1ccc(CCN(Cc2cc3cccc(C)c3[nH]c2=O)C(=O)N2CCCC2)cc1OC | 5.6% (inactive)
19 | CCCc1cc(=O)[nH]c(SCC(=O)Nc2nonc2N)n1 | 9.8% (inactive)
20 | CC(=O)Nc1ccc(S(=O)(=O)n2cnc(C)c2)cc1 | -13.1% (inactive)
21 | Cc1nc2sc(C(c3ccc(Cl)cc3)N3CC(C)OC(C)C3)c(O)n2n1 (stereo not drawn) | -3% (inactive)

Row | SMILES | inhibition
22 | CSc1nc2sc(-c3ccccc3)cc2c(=O)n1N | 8.1% (inactive)
23 | O=C(c1ccc(Cl)cc1)N1CCCOC1 | -7.1% (inactive)
24 | C/C(=N\Nc1nc2c(s1)CCCC2)c1ccccc1 | 3.8% (inactive)
25 | N=C1C(c2nc3ccccc3s2)=C(O)CN1Cc1ccco1 | -3% (inactive)
26 | CCOC(=O)C1C(=O)NC(N2CCCCC2)=NC1c1ccco1 (stereo not drawn) | -0.9% (inactive)
27 | Cn1c(NC(=O)C2c3ccccc3Oc3ccccc32)cc(=O)n(C)c1=O | -2.7% (inactive)
28 | CC1(C)OC(=O)C(=NNc2ccc(O)cc2)C(=O)O1 | -6.2% (inactive)
29 | O=C(CS(=O)c1ccc(C(F)(F)F)cc1[N+](=O)[O-])Oc1ccccc1 (stereo not drawn) | 56.9% (inactive)
30 | COc1ccc(-c2nc(C#N)c(NCCCN(C)C)o2)cc1OC | -0.1% (inactive)
31 | COc1ccc(S(=O)(=O)N2CCCC2C(=O)Nc2ccc(C)cc2)cc1 (stereo not drawn) | -4% (inactive)
32 | O=S(=O)(c1ccc2c(c1)OCCCO2)N1CCNCC1 | 0.5% (inactive)
33 | C=CCNC(=O)c1nn2cccnc2c1Cl | 3.3% (inactive)
34 | CN1CCCCc2c1[nH]c1ccccc1c2=O | 5.5% (inactive)
35 | C=CCc1ccccc1OCC(O)CNC (stereo not drawn) | 5.5% (inactive)
36 | CC1=NNC(=O)/C1=C\c1cn(-c2ccccc2)nc1-c1ccc(Cl)cc1 | -15.6% (inactive)
37 | Cc1nc(SCc2ccc(Br)cc2)[nH]c(=O)c1C | 5.1% (inactive)
38 | CSc1ccc(S(=O)(=O)Nc2ccc3c4c(cccc24)CC3)cc1 | 17.6% (inactive)
39 | Nc1nnc(SCC(=O)NCc2ccc3c(c2)OCO3)s1 | 0.2% (inactive)
40 | CC(C)NC1CS(=O)(=O)CC1O (stereo not drawn) | -13.7% (inactive)
41 | O=C1N2CCSC2=NC1(Nc1ccccn1)C(F)(F)F (stereo not drawn) | 5.4% (inactive)
42 | O=S(=O)(c1cccc(-n2cnnn2)c1)N1CCOCC1 | -4.6% (inactive)

Same assay, conditions: TNFa-stimulated cells, VCAM1 expression imaging; cell count; at 10 µM; stronger effect = lower value

Row | SMILES | cell count [%]
43 | O=C(CS(=O)c1ccc(C(F)(F)F)cc1[N+](=O)[O-])Oc1ccccc1 (stereo not drawn) | 109
